Measured values from PMC3978654, “Surface plasmon resonance using the catalytic domain of soluble guanylate cyclase allows the detection of enzyme activators^” (Bioorganic & Medicinal Chemistry Letters, 2014).

Legend:
[1] = target: T1, soluble guanylate cyclase α1β1 (sGC) (Homo sapiens, UniProt Q02108+Q02153); experiment: SPR (Biacore T200), concentration series; type: binding
T1 construct: gene GUCY1B1; α1β1 catalytic domain (sGCcat); with sGC α1 subunit (GUCY1A1)
T1 sequence (Q02153 408-619 limits assumed): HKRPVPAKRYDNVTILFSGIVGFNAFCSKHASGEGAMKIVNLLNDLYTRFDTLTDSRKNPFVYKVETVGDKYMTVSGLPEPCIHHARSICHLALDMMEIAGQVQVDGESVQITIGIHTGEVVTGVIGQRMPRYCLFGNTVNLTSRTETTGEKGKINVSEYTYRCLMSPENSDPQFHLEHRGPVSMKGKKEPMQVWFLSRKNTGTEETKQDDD
T1 sequence (Q02108 467-690): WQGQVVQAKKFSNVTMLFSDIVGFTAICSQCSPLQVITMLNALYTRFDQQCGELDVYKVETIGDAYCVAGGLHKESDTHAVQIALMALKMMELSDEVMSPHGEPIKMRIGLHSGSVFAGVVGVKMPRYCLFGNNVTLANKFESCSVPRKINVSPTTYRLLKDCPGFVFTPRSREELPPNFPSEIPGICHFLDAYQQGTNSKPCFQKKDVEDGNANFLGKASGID

[2] = target: T2, soluble guanylate cyclase α1β1 (sGC) (Homo sapiens, UniProt Q02153); experiment: SPR (Biacore T200) at […]; type: binding
T2 construct: gene GUCY1B1; full length sGC; with sGC α1 subunit (GUCY1A1)
T2 sequence (Q02153 1-619): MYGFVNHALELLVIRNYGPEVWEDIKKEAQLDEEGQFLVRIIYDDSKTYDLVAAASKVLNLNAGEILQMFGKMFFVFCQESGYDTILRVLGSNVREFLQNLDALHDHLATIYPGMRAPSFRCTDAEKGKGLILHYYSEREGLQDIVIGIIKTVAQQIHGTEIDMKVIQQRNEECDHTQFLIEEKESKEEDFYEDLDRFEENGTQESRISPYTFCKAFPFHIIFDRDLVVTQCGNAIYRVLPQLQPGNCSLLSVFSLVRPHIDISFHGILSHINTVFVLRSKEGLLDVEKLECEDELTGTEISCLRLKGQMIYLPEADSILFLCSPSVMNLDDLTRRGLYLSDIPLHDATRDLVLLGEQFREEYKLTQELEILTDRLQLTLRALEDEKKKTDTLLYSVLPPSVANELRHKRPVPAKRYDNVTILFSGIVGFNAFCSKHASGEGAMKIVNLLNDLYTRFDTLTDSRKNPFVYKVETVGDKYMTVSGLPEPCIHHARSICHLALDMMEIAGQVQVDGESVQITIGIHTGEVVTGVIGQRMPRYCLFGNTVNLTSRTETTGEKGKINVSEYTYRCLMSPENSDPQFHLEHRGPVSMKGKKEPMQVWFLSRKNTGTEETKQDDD
T2 sequence (Q02108 1-690 partner): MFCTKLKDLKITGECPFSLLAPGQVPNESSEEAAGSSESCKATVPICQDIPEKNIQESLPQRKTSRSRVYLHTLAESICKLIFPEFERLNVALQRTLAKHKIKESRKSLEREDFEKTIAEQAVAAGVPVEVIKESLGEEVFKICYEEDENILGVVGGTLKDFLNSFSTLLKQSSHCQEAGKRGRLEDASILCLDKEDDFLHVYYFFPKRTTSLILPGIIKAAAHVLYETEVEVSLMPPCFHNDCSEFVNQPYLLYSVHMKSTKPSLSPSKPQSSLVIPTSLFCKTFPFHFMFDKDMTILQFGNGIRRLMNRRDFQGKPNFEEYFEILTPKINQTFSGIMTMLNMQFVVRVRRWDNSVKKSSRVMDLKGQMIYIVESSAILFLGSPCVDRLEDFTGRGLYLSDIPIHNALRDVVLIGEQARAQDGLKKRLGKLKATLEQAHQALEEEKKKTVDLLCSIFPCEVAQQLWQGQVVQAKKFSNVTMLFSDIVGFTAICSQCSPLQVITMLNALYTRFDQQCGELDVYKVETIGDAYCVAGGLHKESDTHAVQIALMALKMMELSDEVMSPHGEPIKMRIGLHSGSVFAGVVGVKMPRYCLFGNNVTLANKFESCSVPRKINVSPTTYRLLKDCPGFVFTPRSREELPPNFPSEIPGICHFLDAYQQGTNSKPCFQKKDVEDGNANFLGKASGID

Kd [1] [µM] | SMILES | SPR (Biacore T200) at 100 μM [2]
326 | Nc1nc2c(ncn2[C@@H]2O[C@H](COP(=O)(O)OP(=O)(O)OP(=O)(O)O)[C@@H](O)[C@H]2O)c(=O)[nH]1 [GTP] | –
– | O=C(O)CCCCN(CCc1ccccc1OCc1ccc(CCc2ccccc2)cc1)Cc1ccc(C(=O)O)cc1 [compound 1, BAY 58-2667] | showed strong binding to the full length sGC and only non-specific binding to sGCcat
